What was measured:
P. aeruginosa (PAO1) [1] = assay: Rhamnolipid assay; format: cell-based, Pseudomonas aeruginosa; settings: MOPS Glutamate and Glucose media, complete or iron/phosphate depleted, 17 h, 100 μM (compounds 1, 2, 3), 25 μM (compound 4), relative to DMSO
Description: (§1) A. Pyocyanin Assay Protocol. The amount of pyocyanin in P. aeruginosa culture supernatants was measured following a reported protocol (O'Loughlin et al., 2013) with modifications. A 10 mL overnight culture of P. aeruginosa PAO1 was grown for 16 h. DMSO stock solutions of test compounds (20 mM) were prepared, and 10 μL or 5 μL aliquots were added to sterile 15 mL borosilicate glass test tubes. An inoculating culture was prepared by diluting the overnight culture 1:100 into freshly prepared assay medium (see above), and 2 mL aliquots of this subculture were added to each test tube (0.5% DMSO, final). The cultures were grown for 17 h, and the final cell density measured by reading OD600. Relative pyocyanin levels were measured by first pelleting 1.5 mL of well-mixed culture at 4,000 g for 10 min, transferring 200 μL of the resulting supernatant to a clear, plastic 96-well microtiter plate, and reading absorbance at 695 nm. Media background absorbance (measured from a “no bacteria” control) was subtracted, the resulting values growth normalized by dividing by the final OD600378, and the data plotted relative to a DMSO-treated positive control. B. Rhamnolipid Assay Protocol. Rhamnolipid was quantified following a reported protocol (Koch et al., 1991) with modifications. Assay cultures were prepared and grown in an identical manner to the pyocyanin assay above. Aliquots of the final culture supernatant (1 mL) were transferred to 1 dram glass vials and extracted twice with 1 mL diethyl ether. The pooled organic fractions were evaporated to dryness, and the resulting residue reconstituted in 200 μL de-ionized water. […] After briefly cooling to room temperature, 200 μL of the resulting yellow to yellow-orange solution was transferred to a clear 96-well microtiter plate, and the absorbance at 421 nm measured. Media background absorbance (measured from a “no bacteria” control) was subtracted, the resulting values growth normalized by dividing by the final OD600, and the data plotted relative to a DMSO-treated positive control. […] The amount of elastase B in P. aeruginosa culture supernatants was measured following a reported protocol (Geske et al., 2007) with modifications. […] To quantify elastase B activity, the undigested elastin was pelleted by centrifugation of the assay plate at 1,500 g for 10 min, after which 100 μL of the supernatant was transferred to a new, clear 96-well plate, and the absorbance at 490 nm measured. Media background absorbance (measured from a “no bacteria” control) was subtracted, the resulting values growth normalized by dividing by the final OD600, and the data plotted relative to a DMSO-treated positive control.

P. aeruginosa (PAO1) [2] = assay: Elastase B assay; format: cell-based, Pseudomonas aeruginosa; settings: MOPS Glutamate and Glucose media, complete or iron/phosphate depleted, 17 h, 100 μM (compounds 1, 2, 3), relative to DMSO
Description: as §1

P. aeruginosa (PAO1) [3] = assay: Pyocyanin assay; format: cell-based, Pseudomonas aeruginosa; settings: MOPS Glutamate and Glucose media, complete or iron/phosphate depleted, 17 h, 100 μM (compounds 1, 2, 3), 25 μM (compound 4), relative to DMSO
Description: A. Pyocyanin Assay Protocol. The amount of pyocyanin in P. aeruginosa culture supernatants was measured following a reported protocol (O'Loughlin et al., 2013) with modifications. A 10 mL overnight culture of P. aeruginosa PAO1 was grown for 16 h. DMSO stock solutions of test compounds (20 mM) were prepared, and 10 μL or 5 μL aliquots were added to sterile 15 mL borosilicate glass test tubes. An inoculating culture was prepared by diluting the overnight culture 1:100 into freshly prepared assay medium (see above), and 2 mL aliquots of this subculture were added to each test tube (0.5% DMSO, final). The cultures were grown for 17 h, and the final cell density measured by reading OD600. Relative pyocyanin levels were measured by first pelleting 1.5 mL of well-mixed culture at 4,000 g for 10 min, transferring 200 μL of the resulting supernatant to a clear, plastic 96-well microtiter plate, and reading absorbance at 695 nm. Media background absorbance (measured from a “no bacteria” control) was subtracted, the resulting values growth normalized by dividing by the final OD600378, and the data plotted relative to a DMSO-treated positive control. B. Rhamnolipid Assay Protocol. Rhamnolipid was quantified following a reported protocol (Koch et al., 1991) with modifications. Assay cultures were prepared and grown in an identical manner to the pyocyanin assay above. Aliquots of the final culture supernatant (1 mL) were transferred to 1 dram glass vials and extracted twice with 1 mL diethyl ether. The pooled organic fractions were evaporated to dryness, and the resulting residue reconstituted in 200 μL de-ionized water. In a 1.7 mL plastic centrifuge tube, 50 μL of this extract was diluted into 450 μL of a solution of 0.19% (w/v) orcinol in 50% (v/v) concentrated H2SO4 (or 20 μL extract into 480 μL orcinol solution for cultures grown in MOPS Glucose medium). The tubes were vortexed thoroughly to mix and incubated in an 80° C. heating block for 30 min. After briefly cooling to room temperature, 200 μL of the resulting yellow to yellow-orange solution was transferred to a clear 96-well microtiter plate, and the absorbance at 421 nm measured. Media background absorbance (measured from a “no bacteria” control) was subtracted, the resulting values growth normalized by dividing by the final OD600, and the data plotted relative to a DMSO-treated positive control. C. Elastase B Assay Protocol. The amount of elastase B in P. aeruginosa culture supernatants was measured following a reported protocol (Geske et al., 2007) with modifications. Assay cultures were prepared and grown in an identical manner to the pyocyanin assay above. Aliquots of the final culture supernatant (50 μL) were added to the wells of a clear, plastic 96-well plate. To each well, 150 μL of 0.5% (w/v) elastin-congo red conjugate (Elastin Products Co.) in Tris buffer (10 mM Tris-HCl, 1 mM CaCl2, pH 7.2) was added. The plate was sealed with a polypropylene storage mat (Costar 3080) and incubated in a 37° C. shaking incubator (200 rpm) attached to a Labquake rotator for 12 h (for experiments in SCFM2) or 24 h (for experiments in MOPS medium). To quantify elastase B activity, the undigested elastin was pelleted by centrifugation of the assay plate at 1,500 g for 10 min, after which 100 μL of the supernatant was transferred to a new, clear 96-well plate, and the absorbance at 490 nm measured. Media background absorbance (measured from a “no bacteria” control) was subtracted, the resulting values growth normalized by dividing by the final OD600, and the data plotted relative to a DMSO-treated positive control.

QscR = QscR (Pseudomonas aeruginosa, UniProt G3XD77); settings: compounds at 100 mm; E. coli reporter strain JLD271/pJN105Q/pSC11-Q; 100 mm OdDHL = 100%; error ±10%
Description: Construction of pSC11-Q: A 348 bp fragment spanning the upstream region of PA1897 (¢304 to +43 relative to the PA1897 translationalstart codon) was amplified from plasmid pJL101*by using primers 5′-GAATAT GGATCC TCTCTC CGCAGA TACCTG-3′ (BamHI site underlined) SEQ ID NO:5 and 5′-GCTATT GAATTC TGAAGA TGAATA GCGCCAC-3′ (EcoRI site underlined) SEQ ID NO:6. The PCR-generated fragment was digested with EcoRI and BamHI and subsequently ligated into EcoRI/BamHI-digested pPROBE-KT to generate pPROBE-KQ2. […] CGCC-3′ (BamHI site underlined) SEQ ID NO:8. The PCR-generated fragment was digested with SalI and BamHI and subsequently ligated into SalI/BamHI-digested pSC11 to generate pSC11-Q.
E. coli reporter gene assays: Primary assays for RhlR, LasR, and QscR activity in E. coli JLD271 reporter (beta-galactosidase) strains were performed as reported by Welsh et al. 2015, with the following modifications:
For all primary and dose-response antagonism assays, the concentration of native ligand utilized was approximately equal to its EC50 value in each bacterial reporter strain. For RhlR, LasR, and QscR primary antagonism assays, synthetic ligand (100 mm) was screened against BHL (10 mm), OdDHL (2 nm), and OdDHL (15 nm), respectively. For RhlR, LasR, and QscR primary agonism assays, synthetic compound (100 mm) was screened alongside and compared to the natural ligand (900 mm BHL or 100 mm OdDHL) for the receptor. As part of the beta-galactosidase assay protocol, plates to which CPRG substrate had been added were incubated at either 25° C. (LasR assay) or 30° C. (RhlR and QscR assays) until positive control wells developed a deep red color (10 min for LasR, 30 min for RhlR, and 60 min for QscR). Dose-response reporter gene assays were performed according to these protocols by using varying concentrations of compound.

Sequence of QscR (G3XD77 entry or part of it): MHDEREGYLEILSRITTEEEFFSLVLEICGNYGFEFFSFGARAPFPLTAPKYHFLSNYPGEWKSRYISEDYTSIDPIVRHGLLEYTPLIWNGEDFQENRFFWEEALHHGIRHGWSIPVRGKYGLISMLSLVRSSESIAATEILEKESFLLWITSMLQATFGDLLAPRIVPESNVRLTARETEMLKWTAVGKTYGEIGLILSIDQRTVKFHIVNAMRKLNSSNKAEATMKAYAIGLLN

O=C(N[C@H]1CCOC1=O)C1CCCC1 [compound 3]
rhamnolipid production, single compound screens (P. aeruginosa (PAO1) [1]): induced additional rhamnolipid and elastase B production
elastase B production, single compound screens (P. aeruginosa (PAO1) [2]): induced additional rhamnolipid and elastase B production
pyocyanin production, single compound screens (P. aeruginosa (PAO1) [3]): blocked pyocyanin production under nearly all of the environmental conditions tested
Activation [%] QscR (QscR): 4%

From patent US10322112B2, “Compound combinations for attenuation of bacterial virulence” (priority 2016, dated 2019)
